# Measured values as given in US20070178436A1, “Method of inactivating virus in circular blood and its applications in treating viral diseases” (Beijing Jingjing Medical Equipment CO., Ltd., priority 2003, published 2007).
# Read-outs that look alike come from different tables or passages of the source.
# What was measured:
# [1] = tested on: clotting factors of plasma; experiment: Clotting factors before and after processing, automated coagulation analyzer; conditions: 60 minutes of circulatory processing
# [2] = Impact on the content of Inorganic Salt (automatic biochemical analyzer); conditions: 60 minutes of circulatory processing
# clotting factor VIII = experiment: Impact on the activity of clotting factor VIII (detection kit); conditions: 60-minute circulatory processing
# complement C3 = experiment: Impact on the content of complement C3 (single-diffusion plate); conditions: 60 minutes of circulatory processing
# [3] = tested on: VSV (vesicular stomatitis virus); assay type: cell-based
# [4] = Impact on the pH value of whole blood; assay type: physicochemical; conditions: for pH value in whole blood: 60 minutes of circulatory processing
# Sindbis = assay type: cell-based, Sindbis virus
# Sindbis virus (SV) = assay type: cell-based
# VSV = assay type: cell-based, vesicular stomatitis virus; conditions: for residual virus VSV: 1500 ml plasma, bag with three pressed folded lines
# [5] = Impact on the content of the plasma protein (automatic biochemical analyzer); conditions: 60 minutes of circulatory processing
# clotting factor IX = experiment: Impact on the activity of clotting factor IX (detection kit); conditions: for Activity of factor IX (%): 60 minutes of circulatory processing
smiles,measurement,setting,value
CN(C)c1ccc2nc3ccc(=[N+](C)C)cc-3sc2c1 [methylene blue],APTT clotting time,[1],74.0 ″
same,Clotting factor II clotting time,[1],25.0 ″
same,Clotting factor IX clotting time,[1],66.7 ″
same,Clotting factor V clotting time,[1],31.8 ″
same,Clotting factor VII clotting time,[1],26.8 ″
same,Clotting factor VIII clotting time,[1],83.6 ″
same,Clotting factor X clotting time,[1],32.6 ″
same,Clotting factor XI clotting time,[1],82.6 ″
same,Clotting factor XII clotting time,[1],70.2 ″
same,PT clotting time,[1],19.6 ″
same,APTT (reduced),[1]; versus control plasma,17.5%
same,Clotting factor II (reduced),[1]; versus control plasma,1.6%
same,Clotting factor IX (reduced),[1]; versus control plasma,4.9%
same,Clotting factor V (reduced),[1]; versus control plasma,8.9%
same,Clotting factor VII (reduced),[1]; versus control plasma,7.2%
same,Clotting factor VIII (reduced),[1]; versus control plasma,7.2%
same,Clotting factor XI (reduced),[1]; versus control plasma,6.7%
same,Clotting factor XII (reduced),[1]; versus control plasma,3.7%
same,PT (reduced),[1]; versus control plasma,31.5%
same,Ca content,[2],1.57 mM/l
same,Cho content,[2],3.82 mM/l
same,Cl content,[2],58.7 mM/l
same,K content,[2],3.22 mM/l
same,Mg content,[2],0.67 mM/l
same,Na content,[2],135.1 mM/l
same,P content,[2],1.19 mM/l
same,range of decrease of the activity of clotting factor VIII,clotting factor VIII,less than 20%
same,reduction of the content of the complement C3 compared to a reference,complement C3,about 5%
same,content of the complement C3,complement C3; batch I,5.64 mg/mL
same,content of the complement C3,complement C3; batch II,5.43 mg/mL
same,content of the complement C3,complement C3; batch III,5.61 mg/mL
same,virus titer left (VSV),"[3]; Volume of blood 1000 ml, circulatory time 60 mins",≦−0.5 lg TCID50
same,virus titer left (VSV),"[3]; Volume of blood 2000 ml, circulatory time 120 mins",≦−0.5 lg TCID50
same,pH value in whole blood,[4]; batch I,7.35
same,pH value in whole blood,[4]; batch II,7.38
same,pH value in whole blood,[4]; batch III,7.36
same,change on the pH value of the whole blood,[4]; processing method of the invention,does not cause any change on the pH value
same,Sindbis virus illuminated (titer reduction),Sindbis,more than 5 LgTCID50
same,reduction of virus titer Sindbis,Sindbis,over 5.0 Lg TCID50
same,virus liter left Sindbis,Sindbis,≦−0.5 Lg TCID50
same,virus titer left Sindbis,Sindbis virus (SV),≦−0.05 lg TCID50
same,residual virus VSV,"VSV; Illumination time 1 h, 50 ml/min",2.63 Lg TCID50
same,residual virus VSV,"VSV; Illumination time 2 h, 50 ml/min",−0.13 Lg TCID50
same,residual virus VSV,"VSV; Illumination time 4 h, 50 ml/min",≦−0.50 Lg TCID50
same,reduction of virus titer VSV,"VSV; Simulation 1, 1500 ml plasma, 50 ml/min",over 5.0 Lg TCID50
same,virus liter left VSV,"VSV; illumination path 2.0 m, illumination time 26.0 sec, 50 ml/min",≦−0.5 Lg TCID50
same,VSV illuminated (titer reduction),"VSV; illumination path 2 meter, 26 seconds, 50 ml/min",more than 5 LgTCID50
same,virus liter left VSV,"VSV; illumination path 2.5 m, illumination time 32.5 sec, 50 ml/min",≦−0.5 Lg TCID50
same,virus liter left VSV,"VSV; illumination path 3.0 m, illumination time 39.0 sec, 50 ml/min",≦−0.5 Lg TCID50
same,virus liter left VSV,"VSV; illumination path 3.5 m, illumination time 45.5 sec, 50 ml/min",≦−0.5 Lg TCID50
same,virus liter left VSV,"VSV; illumination path 4.0 m, illumination time 52.0 sec, 50 ml/min",≦−0.5 Lg TCID50
same,virus titer left (VSV),"VSV; standard 15 cm bag with five pressed folded lines, plasma flowing speed 50",≦−0.50 Lg TCID50
same,virus titer left (VSV),"VSV; standard 15 cm bag with five pressed folded lines, plasma flowing speed 80",0.13 Lg TCID50
same,virus titer left (VSV),"VSV; standard 15 cm bag with three pressed folded lines, plasma flowing speed 50",−0.25 Lg TCID50
same,virus titer left (VSV),"VSV; standard 15 cm bag with three pressed folded lines, plasma flowing speed 80",1.50 Lg TCID50
same,virus titer left (VSV),"VSV; standard 15 cm cut-through plasma bag, plasma flowing speed 50",4.25 Lg TCID50
same,virus titer left (VSV),"VSV; standard 15 cm cut-through plasma bag, plasma flowing speed 80",5.13 Lg TCID50
same,Albumin content,[5],36.1 g/L
same,Glucose content,[5],21.2 mM/l
same,Total protein content,[5],58.8 g/L
same,triglyceride content,[5],1.62 mM/l
same,range of decrease of the activity of clotting factor IX,clotting factor IX; 60-minute circulatory processing,about 10%
same,Activity of factor IX (%),clotting factor IX; batch I,106.1%
same,Activity of factor IX (%),clotting factor IX; batch II,125.2%
same,Activity of factor IX (%),clotting factor IX; batch III,89.4%
